Data from patent US20050070480A1, “Peptide arginals and methods for treating disseminated intravascular coagulation” (priority 2001, published 2005).
Like-named read-outs stand apart in the source and are kept apart here.

Columns and labels:
LPS-treated rats = experiment: Survival in a rat model for disseminated intravascular coagulation; type: in vivo; conditions: for Survival rate %: rats, 30 mg/kg LPS i.v.
[1] = tested on: endotoxin-treated rabbits; type: in vivo, rabbit; conditions: for Lethality %, 2 hrs / Lethality no. died/treated animals, 2 hrs / Lethality %, 4 hrs / Lethality no. died/treated animals, 4 hrs: endotoxin-treated rabbits
[2] = target: tissue plasminogen activator (tPA) (Homo sapiens, UniProt P00750); experiment: Fibrin plate assay, tissue plasminogen activator; type: biochemical; conditions: reduction of lysed area to 50% of control, read-out: LA50 tPA
Text: (§1) Inhibitory effects of the compounds of the invention on plasmin (PL) and plasmin generation by plasminogen (Plogen) activators, such as tissue plasminogen activator (tPA), and urokinase (UK) were examined by the fibrin plate assay. (See e.g., Bagdy, D., Barabás, E., Bajusz, S., and Széll, E., Thromb. Haemostas., 67:325-330 (1992); Barabás, E. Szell, E. and Bajusz, S, Blood Coagulation and Fibrinolysis, 4: 243 (1993)) The results are shown in Table 1, Column C. With a few exceptions the analogues are somewhat more inhibitory than Efegatran against the three fibrinolytic enzymes.

[3] = tested on: citrated human plasma (exogenous thrombin); experiment: Thrombin time (TT) plasma clotting assay; type: biochemical; conditions: thrombin 2.5 NIH U/ml
Experimental: (§2) The inhibitory effect on plasma coagulation was evaluated in the thrombin time (TT), activated partial thromboplastin time (APTT) and prothrombin time (PT) assays by using citrated human plasma as substrate [Bagdy, D. et. al.: Thromb. Haemostas. 67, 325 (1992)]. The TT assay measures the inhibition of a single step, the coagulation of fibrinogen on the action of exogenous thrombin (final concentration 2.5 NIH U/ml). Clotting of plasma in the APTT and PT assays was induced by recalcification. Endogenous thrombin generated could theoretically be present at a final concentration as high as 50 NIH U/ml (APTT, PT). These assays detect the sum of inhibitory actions on fibrin formation and thrombin generation, which includes several proteolytic reactions mediated by either thrombin or other enzymes, e.g. fXa. Anticlotting activity is expressed in CT2, which is the concentration (nM) required to double the clotting time.

clot-bound thrombin = clot-bound thrombin (Homo sapiens, UniProt P00734); experiment: Enzyme inhibition in platelet-rich plasma clots, chromogenic substrate Tos-Gly-Pro-Arg-pNA; type: biochemical
Experimental: (§3) Tos-Gly-Pro-Arg-pNA (S1) for thrombin and Moc-D-Chg-Gly-Arg-pNA (S2) for factor Xa, as published (Bajusz, S. et al.: PCT Pub. No. WO97/46576) briefly. The assays were carried out at room temperature in glass tubes and 96-well microtiter plates.
(§4) Solutions, (i) Buffer A: 0.1 M sodium phosphate/0.05 M NaCl (pH 8.5). (ii) Inhibitors: 0.1, 1.0 and 10 mg/ml solutions in buffer A containing 0.02% human albumin. (iii) Substrates: 1 mM of S1 and 2 mM of S2 in distilled water.
(§5) (b) Preparation of plasma clots. Platelet rich plasma samples (200 μl) placed in glass tubes were incubated at room temperature with 80 μl 40 mM CaCl2 for 60 min. The clots were washed with 2 ml aliquots of saline (0.9% NaCl) with gentle agitation to remove unbound enzymes In case of successful washing the optical density of the reaction mixture of wash and S1 is less than 5% of the control. The plasma clot thus obtained was kept under saline in the tube until use.
(§6) (c) Assessment of the enzyme inhibition in the clots. After removal of saline, the plasma clot was incubated at 37° C. with 400 μl inhibitor (or buffer A as negative control) for 5 min. and with 100 μl substrate S1 or S3 for 30 min., then the reaction was stopped with 100 μl 50% acetic acid. 150 μl portions of the reaction mixtures were placed in the wells of a microtiter plate and read at 405 nm (ELISA READER 800, Bio-Tek Instruments Inc. Winooski, Vt., USA). IC50 values were generated from the extinction data graphically.

endotoxin-treated rats = experiment: Rat model for disseminated intravascular coagulation (fibrin deposition, platelet count, FDP)
Experimental: The effects of compound 1 of the invention and two control anticoagulants, Efegatran (C) and heparin (H) on such phenomena were examined in endotoxin-treated rats [Ford, A. J. and Longridge, D. J.: Br. J. Pharmacol. 110, Suppl.
Male rats were treated with an i.v. bolus injection of 10 mg/kg endotoxin. It was followed by i.v. infusion of saline or the test compounds for four hours. Of compounds 1 and 3, 0.25 mg/kg was given as an initial bolus injection followed by an 0.25 mg/kg/h i.v. infusion for four hours. Heparin (H) was applied similarly, 50 IU/kg as an initial bolus injection followed by an 50 IU/kg/h i.v. infusion for four hours. Control group of animals was treated with 0.9% saline.
The deposition of ^125I-fibrin was investigated in selected organs (liver and kidney. ^125I-fibrinogen was injected 30 min. prior to endotoxin injection. The radioactivities in the tissue samples were measured in a gamma counter (Wallac Wizard 1470). Microthrombi formation in the organs was assessed using the ratio of organ ^125I activity to injected total ^125I activity, defined as the microthrombi index. Changes in this parameter are expressed in percent compared to saline group.
Number of platelet count was determined in an automatic appliance (Sysmex F-800) and related to control values.
Determination of FDP (fibrin degradation products) by Aggristin (Ristocetin) precipitation assay. […]

plasmin (PL) = plasmin (PL) (Homo sapiens, UniProt P00747); experiment: Fibrin plate assay, plasmin; type: biochemical; conditions: reduction of lysed area to 50% of control, read-out: LA50 PL
Text: as §1

citrated human plasma [4] = experiment: Activated partial thromboplastin time (APTT) plasma clotting assay; type: biochemical
Experimental: as §2

urokinase (UK) = urokinase (UK) (Homo sapiens, UniProt P00749); experiment: Fibrin plate assay, urokinase; type: biochemical; conditions: reduction of lysed area to 50% of control, urokinase, read-out: LA50 UK
Text: as §1

citrated human plasma [5] = experiment: Prothrombin time (PT) plasma clotting assay; type: biochemical
Experimental: as §2

clot-bound factor Xa = clot-bound factor Xa (Homo sapiens, UniProt P00742); experiment: Enzyme inhibition in platelet-rich plasma clots, chromogenic substrate Moc-D-Chg-Gly-Arg-pNA; type: biochemical
Experimental: as §3, §4, §5, §6

Chain of tissue plasminogen activator (tPA) (P00750 36-562, species assumed): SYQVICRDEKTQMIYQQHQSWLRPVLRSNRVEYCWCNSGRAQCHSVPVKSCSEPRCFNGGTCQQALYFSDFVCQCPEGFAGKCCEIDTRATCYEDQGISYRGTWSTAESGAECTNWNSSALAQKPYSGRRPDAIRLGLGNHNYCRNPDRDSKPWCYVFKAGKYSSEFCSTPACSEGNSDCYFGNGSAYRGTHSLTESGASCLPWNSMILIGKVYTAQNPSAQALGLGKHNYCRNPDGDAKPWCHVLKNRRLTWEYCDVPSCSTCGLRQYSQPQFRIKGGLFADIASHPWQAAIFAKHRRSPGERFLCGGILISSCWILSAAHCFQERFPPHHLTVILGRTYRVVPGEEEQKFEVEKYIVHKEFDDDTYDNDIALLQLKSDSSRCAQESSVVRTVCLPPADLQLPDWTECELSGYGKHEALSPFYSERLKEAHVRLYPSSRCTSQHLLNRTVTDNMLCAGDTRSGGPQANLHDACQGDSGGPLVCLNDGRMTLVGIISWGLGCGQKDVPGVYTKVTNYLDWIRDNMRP
Chain of clot-bound factor Xa (P00742 235-488 limits assumed): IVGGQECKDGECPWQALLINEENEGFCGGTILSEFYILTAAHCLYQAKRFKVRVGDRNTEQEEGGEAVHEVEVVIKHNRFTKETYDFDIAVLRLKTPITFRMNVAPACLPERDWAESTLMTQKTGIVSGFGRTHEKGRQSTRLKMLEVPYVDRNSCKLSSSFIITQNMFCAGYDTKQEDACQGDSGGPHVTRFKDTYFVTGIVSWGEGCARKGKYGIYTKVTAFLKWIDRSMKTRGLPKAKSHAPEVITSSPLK
Chain of clot-bound factor Xa (P00742 41-179 limits assumed): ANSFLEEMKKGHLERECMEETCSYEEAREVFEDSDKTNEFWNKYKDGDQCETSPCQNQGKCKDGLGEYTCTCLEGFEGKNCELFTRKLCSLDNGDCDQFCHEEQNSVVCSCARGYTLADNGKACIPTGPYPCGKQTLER
Chain of plasmin (PL) (P00747 581-810 limits assumed, species assumed): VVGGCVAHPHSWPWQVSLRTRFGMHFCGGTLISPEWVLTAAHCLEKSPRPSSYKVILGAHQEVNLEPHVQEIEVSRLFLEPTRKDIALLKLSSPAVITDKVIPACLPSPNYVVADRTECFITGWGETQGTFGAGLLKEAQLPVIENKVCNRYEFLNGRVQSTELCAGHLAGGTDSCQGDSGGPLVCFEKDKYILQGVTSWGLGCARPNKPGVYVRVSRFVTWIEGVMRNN
Chain of plasmin (PL) (P00747 97-580 limits assumed, species assumed): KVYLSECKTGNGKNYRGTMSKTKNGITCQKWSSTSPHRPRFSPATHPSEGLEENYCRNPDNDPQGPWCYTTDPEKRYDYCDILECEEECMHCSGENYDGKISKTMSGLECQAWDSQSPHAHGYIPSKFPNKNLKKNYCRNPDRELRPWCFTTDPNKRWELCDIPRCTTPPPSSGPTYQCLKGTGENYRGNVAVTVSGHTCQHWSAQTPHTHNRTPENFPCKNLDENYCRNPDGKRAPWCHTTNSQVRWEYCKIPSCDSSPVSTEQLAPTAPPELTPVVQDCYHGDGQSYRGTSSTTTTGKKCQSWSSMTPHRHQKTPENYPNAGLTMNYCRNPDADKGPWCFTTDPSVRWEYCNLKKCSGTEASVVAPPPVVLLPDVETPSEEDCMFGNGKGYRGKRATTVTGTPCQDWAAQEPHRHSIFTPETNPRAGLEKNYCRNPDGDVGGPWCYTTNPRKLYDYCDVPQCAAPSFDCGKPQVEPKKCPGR

CCOC(=O)N[C@H](CC1CCCCCC1)C(=O)N1CCC[C@H]1C(=O)N[C@H](C=O)CCCNC(=N)N [Compound 1, ethoxycarbonyl-D-cycloheptylalanyl-L-prolyl-L-arginine aldehyde]
Effectiveness on survival compared with reference C (in words) (LPS-treated rats; LPS-treated rats): more effective than reference C | Survival rate % (LPS-treated rats; 0.75 mg/kg bolus + infusion, 0 hours): 100% | Survival rate % (LPS-treated rats; 0.75 mg/kg bolus + infusion, 4 hours): 100% | Survival rate % (LPS-treated rats; 0.75 mg/kg bolus + infusion, 5 hours): 100% | Survival rate % (LPS-treated rats; 0.75 mg/kg bolus + infusion, 6 hours): 100% | Survival rate % (LPS-treated rats; 0.75 mg/kg bolus + infusion, 7 hours): 90% | Survival rate % (LPS-treated rats; 0.75 mg/kg bolus + infusion, 8 hours): 70% | Survival rate % (LPS-treated rats; 1.0 mg/kg bolus + infusion, 0 hours): 100% | Survival rate % (LPS-treated rats; 1.0 mg/kg bolus + infusion, 4 hours): 100% | Survival rate % (LPS-treated rats; 1.0 mg/kg bolus + infusion, 5 hours): 100% | Survival rate % (LPS-treated rats; 1.0 mg/kg bolus + infusion, 6 hours): 100% | Survival rate % (LPS-treated rats; 1.0 mg/kg bolus + infusion, 7 hours): 90% | Survival rate % (LPS-treated rats; 1.0 mg/kg bolus + infusion, 8 hours): 90% | Survival rate % (LPS-treated rats; 1.5 mg/kg bolus + infusion, 0 hours): 100% | Survival rate % (LPS-treated rats; 1.5 mg/kg bolus + infusion, 4 hours): 100% | Survival rate % (LPS-treated rats; 1.5 mg/kg bolus + infusion, 5 hours): 100% | Survival rate % (LPS-treated rats; 1.5 mg/kg bolus + infusion, 6 hours): 100% | Survival rate % (LPS-treated rats; 1.5 mg/kg bolus + infusion, 7 hours): 100% | Survival rate % (LPS-treated rats; 1.5 mg/kg bolus + infusion, 8 hours): 100% | Effect on lethality of endotoxin-treated rabbits (in words) ([1]; compared with endotoxin alone): significantly reduce the lethality | Lethality %, 2 hrs ([1]; 0.25 mg/kg/h infusion): 0% | Lethality no. died/treated animals, 2 hrs ([1]; 0.25 mg/kg/h infusion): 0/19 | Lethality %, 4 hrs ([1]; 0.25 mg/kg/h infusion): 16% | Lethality no. died/treated animals, 4 hrs ([1]; 0.25 mg/kg/h infusion): 3/19 | Lethality %, 2 hrs ([1]; 0.5 mg/kg/h infusion): 0% | Lethality no. died/treated animals, 2 hrs ([1]; 0.5 mg/kg/h infusion): 0/12 | Lethality %, 4 hrs ([1]; 0.5 mg/kg/h infusion): 17% | Lethality no. died/treated animals, 4 hrs ([1]; 0.5 mg/kg/h infusion): 2/12 | IC50 [2]: 10 µM | CT2 TT (concentration required for doubling the clotting time) [3]: 147 nM | Inhibition of clot-bound thrombin compared with Efegatran (in words) (clot-bound thrombin): surpass Efegatran | IC50 (clot-bound thrombin; clot-bound thrombin, platelet-rich plasma clot): 0.103 µM | DIC-inhibiting potential (in words) (endotoxin-treated rats): more pronounced than that of either heparin or Efegatran | IC50 (plasmin (PL)): 18 µM | CT2 APTT (concentration required for doubling the clotting time) (citrated human plasma [4]): 331 nM | IC50 (urokinase (UK)): 14 µM | CT2 PT (concentration required for doubling the clotting time) (citrated human plasma [5]): 1839 nM | IC50 (clot-bound factor Xa): 0.118 µM
